Key:
Format in all cases: in vivo, human
[1] = tested on: pediatric patients with UCDs; experiment: HPN-100-012 switch-over study: 24-hour blood ammonia on HPN-100 vs NaPBA
Description: HPN-100-012 was an open-label, fixed sequence, switch-over study of the safety, PK and efficacy of HPN-100 compared to NaPBA in patients with UCDs, with a 12-month safety extension part. […] After review of all the safety data by the DSMB, 8 additional subjects were enrolled in the study after the switch-over phase was completed.

pediatric UCD patients = experiment: Pooled ammonia analyses from short term studies
Procedure: Pooled ammonia analyses from short term studies were also conducted.

[2] = Pharmacokinetics of HPN-100 and NaPBA, study HPN-100-005; conditions: HPN-100-005 (N = 11)
Description: (§1) The pharmacokinetics of the short term studies can be summarized as follows. Mean exposure levels of HPN-100 metabolites PBA, PAA, and PAGN after doses of HPN-100 and NaPBA with meals (TID) in pediatric (29 days to 17 years of age) UCD patients in HPN-100-005 and HPN-100-012 studies are summarized below. The mean exposure to PBA, the parent metabolite, and mean exposure to PAGN, the terminal metabolite, show no systematic variation across age groups, while PAA exposure tended to decrease with increasing age, a finding consistent with those from population PK modeling which indicate that the rate of clearance/metabolism of PAA varies directly with body size. While systemic metabolite exposure, assessed as peak plasma concentration (Cmax) or AUC, is generally similar for HPN-100 and NaPBA, the minimum concentration (Cmin-ss) was higher—and/or percent-fluctuation less—for plasma PAGN, a finding consistent with slower gastrointestinal absorption of PBA when administered orally as HPN-100.

[3] = Pharmacokinetics of HPN-100 and NaPBA, study HPN-100-012; conditions: HPN-100-012 (N = 15)
Description: as §1

- Plasma PAA % Fluctuation ([2]; mean (CV %)): 3931 (85.1) %
- Plasma PAA AUC0-24 ([2]; mean (CV %)): 773 (73.3) μg · h/mL
- Plasma PAA CLss/F ([2]; mean (CV %)): 34391 (162.5) mL/min
- Plasma PAA Cmax-ss ([2]; mean (CV %)): 75.1 (64.4) μg/mL
- Plasma PAA Cmin-ss ([2]; mean (CV %)): 0.674 (130.5) μg/mL
- Plasma PAGN % Fluctuation ([2]; mean (CV %)): 1917 (54.8) %
- Plasma PAGN AUC0-24 ([2]; mean (CV %)): 1015 (44.7) μg · h/mL
- Plasma PAGN CLss/F ([2]; mean (CV %)): 19739 (44.3) mL/min
- Plasma PAGN Cmax-ss ([2]; mean (CV %)): 74.8 (37.3) μg/mL
- Plasma PAGN Cmin-ss ([2]; mean (CV %)): 4.6 (66.4) μg/mL
- Plasma PBA % Fluctuation ([2]; mean (CV %)): 1979 (123.7) %
- Plasma PBA AUC0-24 ([2]; mean (CV %)): 236 (105.2) μg · h/mL
- Plasma PBA CLss/F ([2]; mean (CV %)): 145463 (123.4) mL/min
- Plasma PBA Cmax-ss ([2]; mean (CV %)): 37.4 (101.6) μg/mL
- Plasma PBA Cmin-ss ([2]; mean (CV %)): 0.37 (171.3) μg/mL
- U-PAGN Ae0-12 ([2]; mean (CV %)): 7098020 (47.5) μg
- U-PAGN Ae12-24 ([2]; mean (CV %)): 5414406 (71.9) μg
- U-PAGN Fe0-12 ([2]; mean (CV %)): 39.6 (30.0) %
- U-PAGN Fe12-24 ([2]; mean (CV %)): 29.3 (52.8) %
- U-PAGN Fe % dose ([2]; mean (CV %)): 69.0 (23.9) %
- Plasma PAA Tmax-ss ([2]; median): 12.00 h
- Plasma PAGN Tmax-ss ([2]; median): 12.00 h
- Plasma PBA Tmax-ss ([2]; median): 12.00 h
- Plasma PAA % Fluctuation ([3]; mean (CV %)): 1289 (102.8) %
- Plasma PAA AUC0-24 ([3]; mean (CV %)): 1458 (211.3) μg · h/mL
- Plasma PAA CLss/F ([3]; mean (CV %)): 94249 (243.7) mL/min
- Plasma PAA Cmax-ss ([3]; mean (CV %)): 98.0 (152.1) μg/mL
- Plasma PAA Cmin-ss ([3]; mean (CV %)): 49.2 (287.2) μg/mL
- Plasma PAGN % Fluctuation ([3]; mean (CV %)): 1459 (74.1) %
- Plasma PAGN AUC0-24 ([3]; mean (CV %)): 946 (75.5) μg · h/mL
- Plasma PAGN CLss/F ([3]; mean (CV %)): 14360 (93.0) mL/min
- Plasma PAGN Cmax-ss ([3]; mean (CV %)): 74.4 (61.3) μg/mL
- Plasma PAGN Cmin-ss ([3]; mean (CV %)): 17.7 (159.6) μg/mL
- Plasma PBA % Fluctuation ([3]; mean (CV %)): 5102 (75.9) %
- Plasma PBA AUC0-24 ([3]; mean (CV %)): 483 (146.0) μg · h/mL
- Plasma PBA CLss/F ([3]; mean (CV %)): 112093 (136.4) mL/min
- Plasma PBA Cmax-ss ([3]; mean (CV %)): 60.4 (128.3) μg/mL
- Plasma PBA Cmin-ss ([3]; mean (CV %)): 0.993 (227.3) μg/mL
- Plasma PAA Tmax-ss ([3]; median): 8.00 h
- Plasma PAGN Tmax-ss ([3]; median): 8.00 h
- Plasma PBA Tmax-ss ([3]; median): 8.30 h
SMILES: O=C([O-])CCCc1ccccc1.[Na+] [NaPBA, sodium phenylbutyrate]
- Mean blood ammonia ([1]; 12-hour time point, HPN-100 Day 10, NaPBA Day 1): 41.03 µmol/L
- Mean blood ammonia ([1]; 24-hour time point, NaPBA Day 1): 34.66 µmol/L
- Mean blood ammonia levels following an overnight fast ([1]; pre-dose and 24 hours post dose): normal
- abnormal ammonia values (pediatric UCD patients): 35%
- U-PAGN Ae ([2]; mean (CV %)): 12512426 (51.3) μg

From patent US10668040B2, “Treatment of urea cycle disorders in neonates and infants” (Horizon Therapeutics, LLC, priority 2017, dated 2020)
